Experimental data published in EP3156398A1, “AGONISTS OF THE CHEMOKINE RECEPTOR CXCR3” (Friedrich-Alexander-Universität Erlangen-Nürnberg, priority 2015, dated 2017).
Entries after “also recorded” stand apart in the source; their conditions may differ.

Legend:
CXCR3 = target: T1, CXCR3 (Homo sapiens, UniProt P49682); experiment: β-arrestin 2 recruitment with concomitant incubation of FAUC1036 and chemokine; format: cell-based
T1 construct: expressed in transfected cells; host or cells: HEK293 / HEK293T cells, stably transfected; membrane preparations
T1 sequence (P49682 1-368): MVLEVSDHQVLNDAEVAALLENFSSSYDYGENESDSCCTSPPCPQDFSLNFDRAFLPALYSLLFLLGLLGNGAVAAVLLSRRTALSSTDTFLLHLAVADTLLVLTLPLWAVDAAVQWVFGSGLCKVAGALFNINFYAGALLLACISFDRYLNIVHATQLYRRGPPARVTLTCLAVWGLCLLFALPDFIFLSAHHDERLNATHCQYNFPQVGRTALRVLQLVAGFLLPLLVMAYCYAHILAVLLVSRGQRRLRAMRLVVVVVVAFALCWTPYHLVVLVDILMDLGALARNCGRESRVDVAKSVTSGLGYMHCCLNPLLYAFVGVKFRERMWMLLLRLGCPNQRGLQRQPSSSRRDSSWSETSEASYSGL
Method: β-arrestin 2 recruitment assay: The measurement of β-arrestin recruitment was performed utilizing the PathHunter assay purchased from DiscoveRx (DiscoveRx, Birmingham, U.K.) according to the manufacturer's protocol. HEK293 cells stably expressing β-gal enzyme acceptor were transiently transfected with the ProLink (PK1) tagged wildtype CXCR3 receptor using the TransIT-293 transfection reagent from Mirus (purchased from MoBiTec, Goettingen, Germany). The assay was carried out in 384-well plates containing 2000 cells in 20 µL. After incubation at 37°C (5% CO2, 95% relative humidity) overnight, various concentrations of test compounds or CXCL11 (prepared in PBS, pH 7.4, containing 0.20% BSA) were added and the incubation continued for 4 h. Detection mix was then added and incubated for further 60 min at room temperature. Chemiluminescence was determined with a microplate reader Clariostar (BMG labtech, Ortenberg, Germany).
The effect of the β-arrestin 2 biased allosteric agonist FAUC1036 on the CXCL11 and CXCL10-induced β-arrestin 2 recruitment was estimated in a series of experiments where the HEK293T cells expressing CXCR3 were concomitantly incubated with FAUC1036 and chemokines CXCL11 or CXCL10 (Figure 3). […] These observations imply that FAUC1036 behaves as a functional negative allosteric modulator (NAM) in the presence of endogenous agonists in the β-arrestin 2 pathway.

CXCR3-eGFP = target: T2, CXCR3-eGFP (Homo sapiens, UniProt P49682); experiment: Receptor internalization imaging (confocal laser scanning microscopy); format: cell-based; conditions: CXCL11 10 nM; FAUC1036 10 µM and 1 µM; one hour; Figure 4A
T2 construct: expressed in transfected cells; host or cells: HEK293T cells, transient
T2 sequence (P49682 1-368): T1 sequence (P49682 1-368)
Method: Receptor internalization imaging: The day before transfection HEK293T cells were seeded in 6-well plates at a density of 200,000 cells/well. Transient transfection of the C-terminally eGFP-tagged CXCR3 cDNA was performed using TransIT293(MIRUS). Cells were transferred to Poly-L-Lysine coated glass coverslips 24 h after transfection. 2 d after transfection, cells were washed with phosphate buffered saline (PBS) and treated with the endogenous chemokine CXCL11 or compound FAUC1036 at 37°C in 5% CO2 for 60min. Cells were fixed with 4% paraformaldehyde (RotiHistofix, Carl Roth) for 10min. […]
The effect of FAUC1036 on receptor internalization was investigated by scanning laser confocal microscopy and ELISA-based assay. […] The quantification of receptor internalization upon the treatment with the endogenous agonists and with either β-arrestin 2 biased FAUC1036 or G-protein biased FAUC1104 was performed with ELISA based assay. The HEK293T cells transiently expressing FLAG-CXCR3 were stimulated with compounds and chemokines for one hour, washed, fixed and the amount of FLAG-CXCR3 present on the surface was detected by anti-FLAG antibody.

Question: `CC(C)(C)OC(=O)N[C@@H](CCCCNC(=O)[C@@H]1Cc2ccccc2CN1C(=O)CCC(=O)c1ccccc1)C(=O)NCC(c1ccccc1)c1ccccc1` [Compound 11, Tert-butyl ((S)-1-((2,2-diphenylethyl)amino)-1-oxo-6-((S)-2-(4-oxo-4-phenylbutanoyl)-1,2,3,4-tertahydroisoquinoline-3-carboxamido)hexan-2-yl)carbamate] was tested. Which “influence on the efficacy of CXCL10-induced β-arrestin 2 recruitment” value (CXCR3; in the presence of CXCL10 (Figure 3B)) did it give?
Answer: noticeable effect on the efficacy

Question: What about the “influence on the efficacy of CXCL11-induced β-arrestin 2 recruitment” value (CXCR3; in the presence of CXCL11 (Figure 3A)) of the same compound?
Answer: had not influence on the efficacy

Question: What about the “CXCR3 internalization (confocal microscopy)” value (CXCR3-eGFP) of the same compound?
Answer: induced the CXCR3 internalization; also recorded: led to the internalization of a significant portion of the receptors
